Key:
Assay type in all cases: cell-based
[1] = system: SWELL1 KO primary macrophages; experiment: Hypotonically-induced currents in SWELL1 KO primary macrophages; conditions: 210 mOsm, FIG. 8
Experimental: See FIG. 7 (Panel A, Current over time plot; Panel B, Current voltage plot from (A) above). Current over time of hypotonically-induced currents in SWELL1 KO primary macrophages (210 mOsm) was measured along with DCPIB response. […] See FIG. 8 (Panel A, Current over time plot; Panel B, Current voltage plot from (A) above).

SWELL1 current = experiment: Hypotonically-induced currents in wild-type primary macrophages; conditions: wild-type (WT) primary macrophages, 210 mOsm; FIG. 7
RAW 264.7 cells = experiment: LPS-induced inflammatory cytokine mRNA expression in RAW 264.7 cells (qRT-PCR); conditions: 10 μM, 2 hours preincubation, LPS 50 ng/ml for 30 minutes, FIG. 6
Experimental: RAW 264.7 cells were incubated with either vehicle (DMSO) or SN-401 (10 μM) and SN-406 (10 μM) for 2 hours and subsequently, cells were activated with either LPS (50 ng/ml) alone or along with SN-401 (10 μM) and SN-406 (10 μM) for 30 minutes. After the activation cells were harvested for qRT-PCR analysis (see FIG. 6, panels A-C). Relative mRNA expression for selected inflammatory markers, IL1β, TNF-α and CXCL10 from 3 independent experiments. Statistical significance between the indicated groups were calculated by using a two-tailed Student's t-test. Error bars represent mean ±s.e.m. *, P<0.05, **, P<0.01, ***, P<0.001, ****, P<0.0001.

[2] = system: inflammasome mediated IL-1β secretion from primary macrophages; experiment: Macrophage inflammasome activation (IL-1β) in response to LPS + MSU crystals; conditions: LPS priming followed by MSU, FIG. 5
From the text: See FIG. 4 for the structures of the compounds. Mechanical stimulation by MSU crystals function as a physiological activation mechanism for the putatively mechanosensitive SWELL1-LRRC8 channel complex as macrophages engulf MSU and undergo large volume changes. This is analogous to cholesterol crystals that are thought to contribute to NASH by driving simple hepatic steatosis toward fibrotic steatosis. […] First-pass effect from oral delivery, combined with the fact that SN-40X are lipophilic carboxylic acids may conspire to increase hepatic drug concentrations sufficiently to exert anti-inflammatory activity on resident hepatic macrophages and Kupffer cells that contribute to steatohepatitis.

| SMILES | response of hypotonically-induced current [1] | inhibition of hypotonically-induced current (SWELL1 current) | expression of LPS-induced inflammatory cytokine production (relative mRNA IL1β, TNF-α, CXCL10) (RAW 264.7 cells) | suppression of inflammasome mediated IL-1β secretion [2] |
| --- | --- | --- | --- | --- |
| CCCCC1(C2CCCC2)Cc2cc(OCCCC(=O)O)c(Cl)c(Cl)c2C1=O (stereo not drawn) [DCPIB, 4-[(2-butyl-6,7-dichloro-2-cyclopentyl-1-oxo-2,3-dihydro-1H-inden-5-yl)oxy]butanoic acid] | No response | inhibition | – | – |
| CCCCC1(C2CCCC2)Cc2cc(OCCCC(=O)O)c(Cl)c(Cl)c2C1=O (stereo not drawn) [SN-401] | – | – | Inhibit | fully suppressed |
| CCCCC1(C2CCCC2)Cc2cc(OCCCCCC(=O)O)c(Cl)c(Cl)c2C1=O (stereo not drawn) [SN-406] | – | – | Inhibit | fully suppressed |
